Test results as given in patent US20250136997A1, “COMPOSITIONS FOR SEQUESTERING ISOAMYL AMINE AND METHODS OF USE THEREFOR” (University of Louisville Research Foundation, Inc., priority 2023, published 2025).

Legend:
[1] = test system: IAA binding oligo of the S100A8 promoter (hairpin); test: Nucleic acid unwinding assay (helicase); format: biochemical
Method: Nucleic acid unwinding assay. Helicase reactions were carried out in triplicate in 96-well plates. To prepare DNA substrate, 20 μM single strand DNA (WT: 5′-Cy3-[…]-BHQ1-3′ (SEQ ID NO: 5); Mutant: 5′-Cy3-[…]-BHQ1-3′ (SEQ ID NO: 6; Eurofins Genomics LLC, KY) were denatured at 95° C. for 5 minutes in the reaction buffer (25 mM Tris HCl pH 7.5, 100 mM NaCl, 15 mM MgCl2, 1 mM DTT, 0.1 mg/ml BSA) and cooled slowly to room temperature before add IAA (100 nM) and/or helicase ([…]). After ATP (2 mM) was added to initiate the helicase activity, the fluorescence value was recorded using a microplate reader with an excitation wavelength of 550 and an emission wavelength of 570. BHQ: black-hole quencher.

promoter of S100A8 [2] = test: SPR of p53 protein and biotinylated oligo with or without IAA; format: binding, mouse
promoter of S100A8 [3] = test: Chromatin immunoprecipitation assay with biotinylated IAA; format: binding, mouse; conditions: BV2 genomic DNA
Method: Chromatin immunoprecipitation assay. To identify the interaction of IAA and promoter of S100A8, 1 mg of IAA was labeled with biotin using the EZ-Link NHS-PEG4 Biotinylation kit (Thermo Fisher Sci., #21455) and excess biotin was removed using a desalting column. Biotinylated IAA was incubated with microglia BV2 cells for 3 h at 37° C. following 37% formaldehyde (final 1%) in 1 ml PBS for one more hour for cross-linking. The cell lysate was collected in 1 ml of RIPA buffer and sonication was used to shear the chromatin into 0.5˜1 kb fragment. Streptavidin Dynabeads ([…]) were added to the DNA samples for 1 h at room temperature. PBS replaced the DNA and was incubated with the beads as the control to exclude non-specific interactions. After washing beads with PBS, biotinylated IAA was eluted from the beads with the biotin (4 mg/ml) in 25mMTris-HCL containing 0.3MNaCl (pH 8.5) as the elution buffer at room temperature for 1 h or 95° C. for 5 min. The supernatant was collected and the DNA was purified with acetic acid (2%, v/v) and dissolved into […] of H2O. Two ml of DNA was used in quantitative PCR reactions using the primers of S100A8-ChIP in Table 3.

[4] = Histological analysis (H&E) of brain; format: in vivo, mouse; conditions: IAA to young mice, phage to aged mice; especially cerebrum and cerebellum
Method: Histological analysis. For hematoxylin and eosin (H&E) staining, tissues were fixed with buffered 10% formalin solution (SF93-20; Fisher Scientific, Fair Lawn, NJ) overnight at 4° C. Dehydration was achieved by immersion in a graded ethanol series of 70%, 80%, 95%, and 100% ethanol for 40 minutes each. Tissues were embedded in paraffin and subsequently cut into ultra-thin slices (5 μm) using a microtome. Tissues were deparaffinized by xylene (Fisher) and rehydrated by decreasing concentrations of ethanol and PBS. Tissue sections were stained with H&E and slides were scanned with an Aperio ScanScope. For frozen sections, tissues were fixed with periodate-lysine-paraformaldehyde (PLP) and dehydrated with 30% sucrose in PBS at 4° C. overnight. The sections were incubated overnight at 4° C. with anti-Iba1 (FujiFilm, #019-19741) and anti-CD-11b (Biolegend, #101204) diluted 1:100. The signal was visualized with the secondary antibodies conjugated to Fluors Alex-488 or Alex-594 (Invitrogen) and nuclei were stained with 4′,6-Diamidino-2-phenylindole dihydrochloride (DAPI). The slides were scanned using an Aperio ScanScope or visualized using confocal laser scanning microscopy (Nikon, Melville, NY).

[5] = T-maze spontaneous alternation (TMSA) test; format: in vivo, mouse; conditions: IAA to young mice
Method: T-maze test. To evaluate the cognitive impairment without requirement of full motor function, modified T-Maze test (Deacon and Rawlins, 2006) was carried out. Mice were gently handled, habituated to the T-Maze apparatus, and subjected to food deprivation. On the forced alternation sample trial (T1), the animals were exposed to the T-maze with one of the arms opened and rewarded with pellet at end of the arm. The opposite arm was blocked by a guillotine door. The mouse was allowed to explore the open arm and consume the reward. Ten consecutive trials were performed, then the mouse was removed. After 30 min, retrieval testing (T2) was performed. The blocked arm was opened and the mouse was placed in the same start position. […] If the mouse entered the same arm as in T1, the mouse was confined for 10 seconds and this response was marked as an “Error”. Each mouse was subjected to 10 consecutive runs. Forced Alternation [%] was defined as the percent of mice first entering the novel arm during T2. […] The three- or four-day intersession interval is used to assess recognition memory performances.

S100A8 = test: Western blot of S100A8 in p53 KO microglia after IAA; format: cell-based, mouse; conditions: p53 KO with CRISPR-Cas9, IAA 12 h
Method: Western blotting. Cells were treated as indicated in individual Figure legends and whole cell extracts (WCE) were prepared in the radioimmunoprecipitation assay (RIPA) buffer (Sigma) with addition of protease and phosphatase inhibitors (Roche). Proteins were separated by 10% SDS-PAGE and transferred to polyvinylidene difluoride (PVDF) membranes (Bio-Rad Laboratories, Inc., Hercules, CA). Dual color precision protein MW markers (BioRad) were separated in parallel. Antibodies were purchased as follows: cleaved-caspase-3 (ab214430), cleaved PARP (ab203467) and GAPDH (ab9657, Abcam) from Abcam; S100A8 (47310) and S100a9 (72590) from Cell Signaling; and Ltf (GTX81085) from GeneTex. The secondary antibodies conjugated to Fluors Alex-488 (A32723) or Alex-594 (A11012) were purchased from Invitrogen (Eugene, OR). The bands were visualized on the Odyssey Imager (LiCor Inc, Lincoln, NE).

Compound: CC(C)CCN [IAA, isoamylamine]
- activity of helicase unwinding of the self-complementary binding sequence ([1]; WT Cy3/BHQ1 oligo, with helicase): enhanced
- unwinding of mutant sequence ([1]; mutant Cy3/BHQ1 oligo): attenuated
- p53 binding to promoter of S100A8 (SPR) (promoter of S100A8 [2]): p53 binds to promoter of S100A8 in an IAA dependent manner
- interaction with promoter of S100A8 genomic DNA (ChIP) (promoter of S100A8 [3]): demonstrated
- neuronal loss and dying neurons in the brain (histology) [4]: significantly promoted
- deficit of spatial learning in the TMSA (percentage of correct choices) ([5]; phage to aged mice): induced the deficit
- percentage of alternating choices (exploring new arm), TMSA ([5]; phage^TSD-27 to aged mice): reduced young mice exploring the new path
- S100A8 induced by IAA (western blot) (S100A8): p53 dependent
